In patent US9321750B2, “ROR modulators and their uses” (INNOV17 LLC, priority 2012, dated 2016):
Read-outs that look alike come from different tables or passages of the source.

Columns and labels:
[1] = biological target: T1, RORγ LBD (Homo sapiens (Human), UniProt P51449); experiment: TR-FRET co-repressor NCoR1-D2 interaction with RORγ LBD; assay type: biochemical
Description: (§1) The Time-Resolved Fluorescence Resonance Energy Transfer (TR-FRET) assay kit (Life Technologies) was used to measure compound efficacy to disrupt or enhance ligand-mediated interaction of the co-activator and co-repressor peptides with the purified GST-tagged (i) RORγ LBD or (ii) […]. The RORγ LBD and RORα LBD each have a basal level of interaction with the co-activator D22 or co-repressor NCoR1-D2 in the absence of ligand, thus it is possible to identify compounds that inhibit or induce RORγ and/or RORα co-activator/co-repressor interactions, thus determining RORα, RORγ, or RORα/RORγ compound selectivity. The assay was performed as per manufacturer's instructions and TR-FRET was assessed 2 and 20 hours post-assay initiation. Compounds were identified to (i) have no impact on either co-activator displacement or […] from the assessed LBD (ii) promote co-activator displacement from the assessed LBD (iii) promote co-repressor recruitment to the assessed LBD or (iv) concurrently promote co-activator displacement from the assessed LBD and co-repressor recruitment to the assessed LBD.

[2] = biological target: RORα LBD (Homo sapiens (Human), UniProt P35398); experiment: TR-FRET co-repressor NCoR1-D2 interaction with RORα LBD; assay type: biochemical
Description: as §1

[3] = test system: IL-17F; experiment: TH17 cytokine inhibition as measured by ELISA: IL-17F; assay type: cell-based; details: 120 h; human TH17 cells, 5 days differentiation, ELISA of supernatant
Protocol: (§2) Peripheral blood mononuclear cells (PBMCs) were sourced from freshly prepared leukocyte enriched plasma (buffy coat) from healthy volunteers from which PBMCs were isolated by density gradient centrifugation using Ficoll-Paque™ PLUS (GE Healthcare). Naïve CD4+ T cells were isolated using the Naïve CD4+ T cell Isolation Kit II (Miltenyi Biotec) as per manufacturer's instructions. CD4+ T cells were plated at 5×10^4 cells/well in 96 well plates pre-coated with immobilized human (h)-αCD3 antibody (eBioscience) then differentiated to TH17 cells using h-αCD28, h-αIFNγ, h-αIL4, h-IL6, h-IL23, h-IL1β, h-TGFβ1 (eBioscience) and maintained in a cell culture incubator at 37° C. with 5% CO2 in TexMACS Medium (Miltenyi Biotec) supplemented with 1% Penicillin/Streptomycin (Lonza) over 5 days.
Human CD4+ T cells were differentiated to TH17 cells as described in the presence or absence of various concentrations of compounds in a final concentration of 0.1% DMSO in TexMACS medium. Supernatants were collected and stored at −20° C. until they were to be assayed for IL-17A, IL-17F, IL-17AF, IL-21 and/or IL-22 levels as determined by Ready-Set-Go ELISA kits (eBioscience) as per manufacturer's instructions. Endpoint absorbance was read at 450 nm and 570 nm according to manufacturer's instructions (eBioscience) using a microplate reader (Perkin Elmer). The percentage of cytokine inhibition was calculated with reference to DMSO treated cells and the IC50s were determined by GraphPad Prism software and presented in the table below.

[4] = TH17 cell viability (Prestoblue); assay type: cell-based; set-up: concentration or dose not given beside the values; details: human; percentage of DMSO treated cells; read-out: % viability of compound treated TH17 cells
Protocol: as §2
Cells were assayed for viability in the presence or absence of compound using Prestoblue® Cell Viability Reagent (Life Technologies) as per manufacturer's instructions after 30 minutes incubation of TH17 cells with reagent. Absorbance was measured at 570 nm and 600 nm using a microplate reader (Perkin Elmer) and data were analyzed as per manufacturer's instructions. Cell viability was expressed as a percentage of DMSO treated cells.

[5] = test system: IL-17F; experiment: Real-time qRT-PCR in TH17 cells: IL-17F gene expression; assay type: cell-based, human; set-up: key: A: No change in gene expression observed relative to DMSO treated Th17 cells; B: Decreased gene expression observed relative to DMSO treated Th17 cells; C: Increased gene expression observed relative to DMSO treated Th17 cells
Protocol: as §2
(§3) RNA was isolated from TH17 cells and cDNA was synthesized using the Verso cDNA kit (Thermo Scientific) as per manufacturer's instructions. IL-17A, IL-17F, IL-21, IL-22, G-CSF, IL-23R and FOXP3 gene expression were determined for compound treated and untreated TH17 cell samples using Solaris qPCR Gene expression assays (Thermo Scientific) with an iCycler iQ Real-Time PCR Detection System (Bio-Rad). Individual gene expression was normalized to a panel of six reference genes (ACTB, TBP, HPRT1, PGK1, TFRC and PPIA) (Thermo Scientific) and analyzed by REST 2009 (Qiagen) in accordance to MIQE guidelines (Bustin et al. (2009) Clin. Chem, 55:611-622). The effects of compounds on TH17 cytokine mRNA levels are presented as fold change in gene expression of compound treated TH17 cells relative to DMSO treated cells in the table below.

[6] = biological target: T1, RORγ LBD; experiment: TR-FRET co-activator D22 interaction with RORγ LBD; assay type: biochemical
Description: as §1

[7] = test system: TH17 cells; experiment: TH17 cellular proliferation (Prestoblue); assay type: cell-based; details: Homo sapiens, 120 h; 3 μM compound, after 5 day TH17 differentiation, relative to DMSO treated TH17 cells; read-out: % change in TH17 cell number
Protocol: as §2
Cellular proliferation was assessed in the presence or absence of 3 μM compound using Prestoblue® Cell Viability Reagent (Life Technologies) as per manufacturer's instructions using absorbance as the output measured by a microplate reader (Perkin Elmer) after 30 minutes of incubation of cells and reagent. A standard curve developed by plotting varying cell numbers versus absorbance was used to assess differences in cellular proliferation between compound treated or untreated cells after the 5 day TH17 differentiation period.

[8] = test system: IL-23R; experiment: Real-time qRT-PCR in TH17 cells: IL-23R gene expression; assay type: cell-based, human; set-up: key: A: No change in gene expression observed relative to DMSO treated Th17 cells; B: Decreased gene expression observed relative to DMSO treated Th17 cells; C: Increased gene expression observed relative to DMSO treated Th17 cells
Protocol: as §2, §3

[9] = test system: FOXP3; experiment: Real-time qRT-PCR in TH17 cells: FOXP3 gene expression; assay type: cell-based, human; set-up: key: A: No change in gene expression observed relative to DMSO treated Th17 cells; B: Decreased gene expression observed relative to DMSO treated Th17 cells; C: Increased gene expression observed relative to DMSO treated Th17 cells
Protocol: as §2, §3

[10] = 2 hr, read-out: RORγ EC50 NCoR1-D2 co-repressor recruitment 2 hr
[11] = 20 hr, read-out: RORγ EC50 NCoR1-D2 co-repressor recruitment 20 hr
[12] = 2 hr, read-out: RORα EC50 NCoR1-D2 co-repressor recruitment 2 hr
[13] = 20 hr, read-out: RORα EC50 NCoR1-D2 co-repressor recruitment 20 hr
[14] = 2 hr, read-out: RORγ EC50 D22 co-activator displacement 2 hr
[15] = 20 hr, read-out: RORγ EC50 D22 co-activator displacement 20 hr

T1 sequence (P51449 269-508): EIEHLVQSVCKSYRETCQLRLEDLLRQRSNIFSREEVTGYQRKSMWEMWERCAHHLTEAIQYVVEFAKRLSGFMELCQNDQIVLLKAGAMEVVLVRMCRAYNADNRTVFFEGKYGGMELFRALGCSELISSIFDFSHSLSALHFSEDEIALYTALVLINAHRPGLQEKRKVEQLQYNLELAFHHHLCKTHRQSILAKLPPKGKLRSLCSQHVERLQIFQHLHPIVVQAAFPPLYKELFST
Chain of RORα LBD (P35398 272-510): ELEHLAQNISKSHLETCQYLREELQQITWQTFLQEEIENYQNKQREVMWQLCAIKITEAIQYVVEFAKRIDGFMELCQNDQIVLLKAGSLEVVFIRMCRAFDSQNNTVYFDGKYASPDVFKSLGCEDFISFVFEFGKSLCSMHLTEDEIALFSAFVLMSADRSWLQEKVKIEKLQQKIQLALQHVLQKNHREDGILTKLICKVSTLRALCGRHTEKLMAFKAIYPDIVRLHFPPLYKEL

Compound | EC50 [1, 10] | EC50 [1, 11] | EC50 [2, 12] | EC50 [2, 13] | IC50 [3] | viability [4] | Fold change in mRNA level of compound treated TH17 cells relative to DMSO treated cells IL-17F [5] | EC50 [6, 14] | EC50 [6, 15] | inhibition at 3 µM [7] | Fold change in mRNA level of compound treated TH17 cells relative to DMSO treated cells IL-23R [8] | Fold change in mRNA level of compound treated TH17 cells relative to DMSO treated cells FOXP3 [9]
CC(=O)Nc1ccc2c(c1)CCCN2Cc1ccc(C(O)(C(F)(F)F)C(F)(F)F)cc1 [Example 2, N-(1-(4-(1,1,1,3,3,3-hexafluoro-2-hydroxypropan-2-yl)benzyl)-1,2,3,4-tetrahydroquinolin-6-yl)acetamide] | > 30 µM | > 30 µM | > 30 µM | > 30 µM | < 10 µM | > 80% | A | < 30 µM | < 30 µM | ≤ 50% | A | A
CC(=O)Nc1ccc2c(c1)CCN2Cc1ccc(C(O)(C(F)(F)F)C(F)(F)F)cc1 [Example 4, N-(1-(4-(1,1,1,3,3,3-hexafluoro-2-hydroxypropan-2-yl)benzyl)indolin-5-yl)acetamide] | < 30 µM | < 30 µM | > 30 µM | > 30 µM | < 10 µM | > 80% | B | < 30 µM | < 30 µM | > 50% | B | C
CS(=O)(=O)Nc1ccc2c(c1)CCCN2Cc1ccc(C(O)(C(F)(F)F)C(F)(F)F)cc1 [Example 5, N-(1-(4-(1,1,1,3,3,3-hexafluoro-2-hydroxypropan-2-yl)benzyl)-1,2,3,4-tetrahydroquinolin-6-yl)methanesulfonamide] | < 30 µM | < 30 µM | < 30 µM | < 30 µM | < 10 µM | > 80% | B | > 30 µM | < 30 µM | ≤ 50% | B | C
